Assay results as given in PMC5620576 (Pharmaceutics, 2017).
Values joined by “and” are separate entries in the source; they are usually repeats but may differ in a detail not shown here. Equal values may be shown once. “Also recorded” adds a separate entry of the source.

Key:
[1] = in vivo; details: male, Sprague-Dawley, rat, serum, po, 10 mg/kg, F, Dox after PO Dox 10 mg/kg, n = 3
[2] = tested on: β-N-acetylglucosaminidase (NAG); assay: Renal toxicity, β-N-acetylglucosaminidase (NAG) in rat urine after single IV dose; type: in vivo; details: after single IV 10 mg/kg Dox or equimolar DoxQ
Procedure: Urine samples from pharmacokinetics experiments were collected from metabolic cages at 0 h, 12 h, 24 h, and 48 h and stored at −20 °C until analysis. Concentrations of NAG urine samples were measured using an assay kit from ALPCO Diagnostics (Salem, NH, USA, cat. No. 73-1290050) on a Medica EasyRA automated clinical chemistry analyzer (Medica Corporation, Bedford, MA, USA).

[3] = tested on: rat cardiac Troponin-I (cTnI); assay: Cardiac toxicity, serum cardiac Troponin-I (cTnI) ELISA after single IV dose; type: in vivo; details: for cTnI concentrations in serum: 12, 24 and 48 h after single IV 10 mg/kg Dox or equimolar DoxQ
Procedure: Samples were centrifuged to obtain the serum and stored at −20 °C in a freezer until analysis. On the day of the analysis, cTnI concentrations were measured in serum samples following the manufacturer’s instructions. The area under the effect curve (AUEC) was calculated for cTnI concentrations at 12–48 h post-dosing using the trapezoidal rule by WinNonlin® software.

[4] = Pharmacokinetic study after IV administration, rat serum and urine; details: for fe, fraction excreted unchanged in urine: administered compound intact in urine; for CLhepatic: n = 3, CLtot minus CLrenal
[5] = Renal toxicity, urinary output over 24 h after single IV dose; type: in vivo, rat; details: 24 h after single IV 10 mg/kg Dox or equimolar DoxQ
Procedure: The total urine volume excreted over 24 h post-dosing was compared to the total urine volume excreted over 24 h pre-dosing.

[6] = tested on: rat cardiomyocytes; parameters: method as in PMID 28462502; details: cited from earlier work
[7] = in vivo; details: male, Sprague-Dawley, rat, iv, 10 mg/kg
[8] = tested on: CYP1B1; parameters: method as in PMID 28462502; details: expression and catalytic activity; cited from earlier work
[9] = Predicted physicochemical properties (VCCLAB, MarvinSketch, GastroPlus); details: predicted values
Procedure: LogP and LogS values of DoxQ were predicted using an online computer software (VCCLAB, Virtual Computational Chemistry Laboratory). pKa, logP, logD at pH 7.4, intrinsic solubility, and solubility at pH 7.4 were calculated using MarvinSketch v. […] 9.0.0007 (Simulations Plus, Inc., Lancaster, CA, USA). […] The melting point of DoxQ was experimentally determined by MEL-TEMPII melting point apparatus from Laboratory Devices (Holliston, MA, USA).

[10] = tested on: CYP3A4; parameters: method as in PMID 28462502; details: in vitro; cited from earlier work
[11] = parameters: method as in PMID 28462502; details: in vitro; cited from earlier work
[12] = Intestinal lymphatic delivery, mesenteric lymph duct cannulated rat model; type: in vivo, male Sprague–Dawley rats; details: over one hour after oral 10 mg/kg, n = 3
Text: The intestinal transport of DoxQ via lymphatics was examined in vivo by two methods.
Six male Sprague–Dawley rats (~300 g) were obtained from Charles River Labs (Montreal, QC, Canada) and given food (Purina Rat Chow 5001) and water ad libitum in the animal facility for at least three days before use. On the day of surgical operation, rats were anesthetized by isoflurane and the abdominal hair was shaved. Rats were maintained under inhaled anesthesia on a warm surgical table. A ~2.5 cm abdominal midline skin incision was made and extended through the musculature using blunt dissection beginning the incision at a point just above the xyphoid cartilage and proceeding distally. […] The lymph duct was isolated from the surrounding connective tissue and a small incision was made with a bent 23 G needle in the ventral wall of the lymph. A catheter was inserted through the incision and secured by placing a small cellulose patch with a drop of Vetbond^TM over the point of insertion into the lymph duct. When a gradual and continuous flow of lymph was observed, an initial lymph sample was collected into a normal microtube. […] Thereafter, lymph samples were collected over one hour after dosing. The animals were euthanized after the last lymph sample collection.

[13] = tested on: P–gp-positive (MDCK–MDR) cells; parameters: method as in PMID 28462502; details: cited from earlier work
[14] = tested on: triple negative murine breast cancer cell line; parameters: method as in PMID 28462502; details: cited from earlier work
[15] = tested on: human cardiomyocytes; parameters: method as in PMID 28462502; details: cited from earlier work
[16] = administered compound intact in rat serum, IV Dox 10 mg/kg or equimolar DoxQ, mean ± SEM
[17] = IV Dox 10 mg/kg or equimolar DoxQ
[18] = administered compound intact, IV Dox 10 mg/kg or equimolar DoxQ
[19] = male, Sprague-Dawley, rat, serum, iv, 10 mg/kg

SMILES: COc1cccc2c1C(=O)c1c(O)c3c(c(O)c1C2=O)C[C@@](O)(C(=O)CO)C[C@@H]3O[C@H]1C[C@H](N)[C@H](O)[C@H](C)O1 [Dox, Doxorubicin]
- bioavailability [1]: ~8.5%
- Cumulative amount of NAG excreted in urine [2]: higher cumulative amounts
- cTnI concentrations in serum [3]: increase in cTnI
- Vss of Dox relative to Vss of DoxQ ([4]; IV, equimolar doses): ~ 80 fold
- C0 [4, 16]: 24700 ± 14200 ng/mL
- Clast [4, 16]: 120 ± 30 ng/mL
- fe, fraction excreted unchanged in urine [4, 17]: ~ 11% and 10.73 ± 3.14%
- CLhepatic [4, 18]: 39.2 ± 6 mL/min/kg
- AUC(0-inf) [4, 19]: 4790 ± 1830 ng·h/mL
- AUC(0-t) [4, 19]: 3970 ± 700 ng·h/mL
- CL renal [4, 19]: 4.67 mL/min/kg
- clearance [4, 19]: 43.8 mL/min/kg
- half-life [4, 19]: 4.69 ± 0.8 h
- k el [4, 19]: 4.44e-05 s⁻¹
- C0 ([4]; male, Sprague-Dawley, rat, serum, iv, 10 mg/kg, C0, administered compound intact in rat serum, IV Dox 10 mg/kg or equimolar DoxQ, mean ± SEM): ~25000 ng/mL
- Vd ([4]; male, Sprague-Dawley, rat, serum, iv, 10 mg/kg, Vss, administered compound intact, IV Dox 10 mg/kg or equimolar DoxQ, mean ± SEM): 6.35 ± 2.11 L/kg
- F, bioavailability (Dox after PO Dox 10 mg/kg, n = 3): 8.57 ± 0.71%
- Total urine volume over 24 h [5]: no significant difference

SMILES: COc1cccc2c1C(=O)c1c(O)c3c(c(O)c1C2=O)CC(O)(C(=O)CO)CC3OC1CC(NC(=O)CNC(=O)Oc2ccc(-c3oc4cc(O)cc(O)c4c(=O)c3O)cc2O)C(O)C(C)O1 (centres unmarked) [DoxQ]
- Toxicity to cardiomyocytes compared to Dox [6]: less toxic; also recorded: less cardiotoxic than Dox
- Cumulative amount of NAG excreted in urine ([2]; 10 mg/kg): lower after IV DoxQ than Dox
- AUC(0-t) [7]: 18600 ± 1980 ng·h/mL
- CL renal [7]: 0.333 mL/min/kg
- clearance [7]: 8.83 mL/min/kg
- half-life [7]: 9.6 ± 18 min
- k el [7]: 0.00127 s⁻¹
- C0 ([7]; C0, administered compound intact in rat serum, IV Dox 10 mg/kg or equimolar DoxQ, mean ± SEM): ~108000 ng/mL
- Vd ([7]; Vss, administered compound intact, IV Dox 10 mg/kg or equimolar DoxQ, mean ± SEM): 0.138 ± 0.015 L/kg
- cTnI concentrations in serum ([3]; 10 mg/kg): also had an increase in cTnI at each time point
- AUEC of cTnI concentrations ([3]; 12–48 h after single IV 10 mg/kg Dox or equimolar DoxQ): lower than the AUEC after Dox
- AUC of intact DoxQ relative to AUC of Dox after Dox ([4]; IV, equimolar doses): 5 fold
- C0 / serum concentration of intact DoxQ relative to Dox after Dox ([4]; IV, equimolar doses): 4–5 fold and 5 fold
- C0 [4, 16]: 108000 ± 26400 ng/mL
- Clast [4, 16]: 1110 ± 170 ng/mL
- fe, fraction excreted unchanged in urine [4, 17]: ~ 5% and 4.32 ± 1.005%
- Vss ([4]; administered compound intact, IV Dox 10 mg/kg or equimolar DoxQ, mean ± SEM): 0.08 ± 0.015 L/kg
- CLhepatic [4, 18]: 8.5 ± 1 mL/min/kg
- Effect on CYP1B1 [8]: inhibitory effects
- LogP of DoxQ relative to Dox [9]: 3–5 fold
- LogD7.4 of DoxQ relative to Dox ([9]; pH 7.4): 25 fold
- Inhibition of CYP3A4 [10]: inhibited
- Release of Dox and quercetin from DoxQ [11]: controlled release of both Dox and quercetin released from DoxQ over four days
- Cumulative amount of Dox in mesenteric lymph fluid, compared to after Dox [12]: twice as high; also recorded: two-fold higher
- Cellular uptake compared to free Dox [13]: higher cellular uptake
- Intact DoxQ in serum after oral dosing (PO DoxQ): not detected
- Anti-cancer activity [14]: retained anti-cancer activity
- Total urine volume over 24 h [5]: no significant difference
- Toxicity to cardiomyocytes compared to Dox [15]: less toxic; also recorded: less cardiotoxic than Dox
